Columns and labels:
Type in all cases: functional
[1] = system: Brassica rapa subsp. oleifera; test: Pre-emergence herbicidal activity against Brassica rapa subsp. oleifera Si Yue Man assessed as growth inhibition at 1500 ai g/ha after 20 days by green house test
Echinochloa crus-galli [2] = test: Pre-emergence herbicidal activity against Echinochloa crus-galli (barnyard grass) assessed as growth inhibition at 1500 ai g/ha after 20 days by green house test
Medicago sativa [3] = test: Pre-emergence herbicidal activity against Medicago sativa (alfalfa) assessed as growth inhibition at 1500 ai g/ha after 20 days by green house test
Digitaria sanguinalis [4] = test: Post-emergence herbicidal activity against Digitaria sanguinalis (hairy crabgrass) assessed as growth inhibition at 1500 ai g/ha after 20 days by green house test
Amaranthus retroflexus [5] = test: Post-emergence herbicidal activity against Amaranthus retroflexus assessed as growth inhibition at 1500 ai g/ha after 20 days by green house test
Echinochloa crus-galli [6] = test: Post-emergence herbicidal activity against Echinochloa crus-galli (barnyard grass) assessed as growth inhibition at 1500 ai g/ha after 20 days by green house test
[7] = system: Brassica rapa subsp. oleifera; test: Post-emergence herbicidal activity against Brassica rapa subsp. oleifera Si Yue Man assessed as growth inhibition at 1500 ai g/ha after 20 days by green house test
Medicago sativa [8] = test: Post-emergence herbicidal activity against Medicago sativa (alfalfa) assessed as growth inhibition at 1500 ai g/ha after 20 days by green house test
Digitaria sanguinalis [9] = test: Pre-emergence herbicidal activity against Digitaria sanguinalis (hairy crabgrass) assessed as growth inhibition at 1500 ai g/ha after 20 days by green house test
Amaranthus retroflexus [10] = test: Pre-emergence herbicidal activity against Amaranthus retroflexus assessed as growth inhibition at 1500 ai g/ha after 20 days by green house test

Row | Structure (SMILES) | growth inhibition (GI) [1] | growth inhibition (GI) (Echinochloa crus-galli [2]) | growth inhibition (GI) (Medicago sativa [3]) | growth inhibition (GI) (Digitaria sanguinalis [4]) | growth inhibition (GI) (Amaranthus retroflexus [5]) | growth inhibition (GI) (Echinochloa crus-galli [6]) | growth inhibition (GI) [7] | growth inhibition (GI) (Medicago sativa [8]) | growth inhibition (GI) (Digitaria sanguinalis [9]) | growth inhibition (GI) (Amaranthus retroflexus [10])
1 | COP(=O)(OC)C(C)OC(=O)COc1ccc(F)cc1F (stereo not given) | <=50% | <=50% | 50% | 50% | 75% | <=50% | 75% | 50% | 75% | <=50%
2 | COP(=O)(OC)C(C)OC(=O)COc1ccc(Br)cc1 (stereo not given) | <=50% | <=50% | <=50% | <=50% | 50% | <=50% | 75% | 50% | <=50% | <=50%
3 | COP(=O)(OC)C(OC(=O)COc1ccc(F)cc1F)c1ccccc1 (stereo not given) | <=50% | 75% | 50% | <=50% | 90% | <=50% | <=50% | <=50% | <=50% | 50%
4 | COP(=O)(OC)C(OC(=O)COc1cccc(F)c1)c1cccc([N+](=O)[O-])c1 (stereo not given) | <=50% | <=50% | <=50% | <=50% | <=50% | <=50% | <=50% | <=50% | <=50% | <=50%
5 | COP(=O)(OC)C(C)OC(=O)COc1ccc(F)c(Cl)c1 (stereo not given) | <=50% | 50% | 75% | <=50% | 75% | <=50% | 75% | 75% | 50% | <=50%
6 | COP(=O)(OC)C(C)OC(=O)COc1cc(F)cc(F)c1 (stereo not given) | <=50% | <=50% | <=50% | <=50% | <=50% | <=50% | <=50% | <=50% | <=50% | <=50%
7 | COP(=O)(OC)C(OC(=O)COc1ccc(F)cc1F)c1cccc([N+](=O)[O-])c1 (stereo not given) | <=50% | <=50% | 50% | 50% | 75% | <=50% | 75% | 50% | 50% | <=50%
8 | COP(=O)(OC)C(C)OC(=O)COc1ccc(F)cc1Cl (stereo not given) | 90% | 90% | 90% | 75% | 90% | 75% | 90% | 90% | 90% | 90%
9 | COP(=O)(OC)C(OC(=O)COc1cccc(Cl)c1Cl)c1cccc([N+](=O)[O-])c1 (stereo not given) | <=50% | <=50% | <=50% | <=50% | <=50% | <=50% | <=50% | <=50% | <=50% | <=50%
10 | COP(=O)(OC)C(OC(=O)COc1ccc(F)cc1)c1cccc([N+](=O)[O-])c1 (stereo not given) | <=50% | 50% | 75% | 50% | 75% | 50% | 50% | 50% | 90% | 75%
11 | COP(=O)(OC)C(OC(=O)COc1ccccc1F)c1cccc([N+](=O)[O-])c1 (stereo not given) | <=50% | <=50% | <=50% | <=50% | <=50% | 90% | <=50% | <=50% | <=50% | <=50%
12 | COP(=O)(OC)C(C)OC(=O)COc1ccc(C)cc1 (stereo not given) | 75% | 50% | 75% | <=50% | 50% | 50% | 50% | 50% | <=50% | 75%
13 | COP(=O)(OC)C(C)OC(=O)COc1ccc(Cl)cc1 (stereo not given) | 90% | 90% | 90% | <=50% | 90% | <=50% | 75% | 50% | 90% | 90%
14 | COP(=O)(OC)C(OC(=O)COc1ccccc1[N+](=O)[O-])c1cccc([N+](=O)[O-])c1 (stereo not given) | <=50% | <=50% | <=50% | <=50% | <=50% | <=50% | <=50% | <=50% | <=50% | <=50%
15 | COP(=O)(OC)C(C)OC(=O)COc1ccc(Br)cc1Br (stereo not given) | <=50% | <=50% | 75% | <=50% | 90% | <=50% | 90% | 90% | <=50% | <=50%
16 | COP(=O)(OC)C(OC(=O)COc1ccc(F)c(Cl)c1)c1ccccc1 (stereo not given) | 90% | 75% | 75% | <=50% | 75% | 50% | 75% | 50% | 90% | 90%
17 | COP(=O)(OC)C(OC(=O)COc1ccc(F)c(Cl)c1)C(Cl)(Cl)Cl (stereo not given) | <=50% | 50% | 50% | <=50% | 90% | 50% | 75% | 50% | 75% | 50%
18 | COP(=O)(OC)C(OC(=O)COc1ccc(Cl)cc1)c1cccc([N+](=O)[O-])c1 (stereo not given) | 90% | 90% | 90% | 50% | 75% | 75% | 75% | 75% | 90% | 90%
19 | COP(=O)(OC)C(OC(=O)COc1cccc(C)c1)c1ccccc1 (stereo not given) | 75% | <=50% | 75% | <=50% | 50% | <=50% | 50% | 50% | <=50% | 75%
20 | COP(=O)(OC)C(OC(=O)COc1ccc(F)cc1Cl)c1ccccc1 (stereo not given) | 90% | 90% | 90% | 50% | 90% | 75% | 75% | 75% | 90% | 90%
21 | COP(=O)(OC)C(OC(=O)COc1ccc(C(F)(F)F)cc1)c1cccc([N+](=O)[O-])c1 (stereo not given) | <=50% | <=50% | <=50% | <=50% | 50% | <=50% | <=50% | <=50% | <=50% | <=50%
22 | COP(=O)(OC)C(OC(=O)COc1ccc(F)cc1Cl)c1ccccc1O (stereo not given) | 90% | 50% | 90% | <=50% | 90% | 50% | 90% | 90% | 90% | 90%

From ChEMBL document CHEMBL3045592, “Studies of O,O-dimethyl α-(2,4-dichlorophenoxyacetoxy)ethylphosphonate (HW02) as a new herbicide. 1. Synthesis and herbicidal activity of HW02 and analogues as novel inhibitors of pyruvate dehydrogenase complex” (J Agric Food Chem, 2011)
